Results reported in paper PMC9230590, “Pharmacokinetics and Tissue Distribution of Enavogliflozin in Mice and Rats” (Pharmaceutics, 2022).
Like-named read-outs stand apart in the source and are kept apart here.

Columns and labels:
[1] = Pharmacokinetics after intravenous injection in mice; type: in vivo, ICR mice; settings: for AUC(0-inf) / AUC(0-t) / half-life / MRT / clearance / Vd: ICR, mouse; for AUC(0-inf) / AUC(0-t) / half-life / MRT / clearance / Vd / Co: plasma; for AUC∞/D / Co/D: dose normalized
Experimental: Fifty-four ICR mice were randomly divided into nine groups (n = 6 per group; Table 1) and intravenously administered an enavogliflozin solution at doses of 0.3, 1, and 3 mg/kg. The drug was dissolved in a mixture of 10% DMSO and 90% saline and injected via the tail vein. Before blood sampling, mice were anesthetized for 5 min using 2% isoflurane in a vaporizer with an oxygen flow of 0.8 L/min. Blood sampling used a sparse sampling method via the right or left retro-orbital vein using heparinized capillary tubes (Heinz Herenz, Hamburg, Germany). Final blood was collected from the abdominal artery using a heparin-treated 1 mL syringe (Jung Lim Co. Ltd., Choong-Buk, Korea) under isoflurane anesthesia (Table 1). Blood samples were collected at 0, 0.083, 0.25, 0.5, 1, 2, 4, 8, and 24 h and centrifuged at 12,000× g for 1 min to separate plasma. An aliquot (30 µL) of each plasma sample was stored at −80 °C until enavogliflozin analysis.
(§1) Concentrations of enavogliflozin in plasma and tissue homogenate samples were analyzed using an Agilent 6430 triple quadrupole liquid chromatography-mass spectrometry (LC–MS/MS) system (Agilent, Wilmington, DE, USA) following a previously published method.
(§2) The data were expressed as the means ± standard deviation for the groups. Pharmacokinetic parameters, such as the area under the plasma concentration–time curve during the period of observation (AUClast), AUC to infinite time (AUC∞), clearance (CL), and volume of distribution at steady-state (Vd,ss), the terminal half-life (t1/2), and mean residence time (MRT) were calculated using non-compartment analysis with WinNonlin software (version 5.1; Pharsights, Cary, NC, USA). The AUC ratios were calculated by dividing the AUClast of enavogliflozin in the tissue samples by the plasma AUClast values of enavogliflozin [15].

[2] = Tissue distribution after single oral administration in mice; type: in vivo, ICR mice; settings: single oral 1 mg/kg; for half-life: read-out: T1/2 (elimination half-life) (converted); for AUC Ratio (AUC24 h, tissue / AUC24 h, plasma): 1 mg/kg
Experimental: Thirty-six ICR mice were fasted with water ad libitum for at least 12 h before oral administration of enavogliflozin and randomly divided into six groups (n = 6 per each sampling time point) and administered with an enavogliflozin solution at a dose of 1 mg/kg via oral gavage. Blood samples (approximately 0.2 mL) were collected at 0.5, 1, 2, 4, 8, 24 h via the abdominal artery. Subsequently, whole tissues, including stomach, small intestine, large intestine, liver, kidney, brain, heart, lung, spleen, and testis, were isolated. Blood samples were centrifuged at 12,000× g for 1 min to separate plasma. Tissue samples were minced thoroughly and homogenized with four volumes of saline using a tissue grinder. An aliquot (30 µL) of plasma and aliquots (50 µL) of tissue homogenate samples were stored at −80 °C until analysis.
as §1, §2

SGLT1 = test system: SGLT1; set-up: method as in PMID 32183468; settings: cited from earlier work
hepatocytes = test system: hepatocytes; set-up: method as in PMID 32932946; settings: mouse hepatocytes; cited from earlier work

Question: Which AUC(0-inf) ([1]; IV 0.3 mg/kg) does the source give for `OC[C@H]1O[C@@H](c2cc(Cc3ccc(C4CC4)cc3)c(Cl)c3c2CCO3)[C@H](O)[C@@H](O)[C@@H]1O` [enavogliflozin, (2S,3R,4R,5S,6R)-2-(7-chloro-6-(4-cyclopropylbenzyl) -2,3-dihydrobenzofuran-4-yl)-6-(hydroxymethyl)tetrahydro-2H-pyran-3,4,5-triol] here?
Answer: The AUC(0-inf) was 512 ± 30.7 ng·h/mL.

Question: And the AUC(0-t) ([1]; IV 0.3 mg/kg)?
Answer: Its AUC(0-t) is 479 ± 33.6 ng·h/mL.

Question: And the half-life ([1]; IV 0.3 mg/kg)?
Answer: Its half-life is 6 ± 1.3 h.

Question: What about the AUC(0-inf) ([1]; IV 1 mg/kg) of the same molecule?
Answer: The AUC(0-inf) was 1630 ± 336 ng·h/mL.

Question: And the AUC(0-t) ([1]; IV 1 mg/kg)?
Answer: Its AUC(0-t) is 1510 ± 282 ng·h/mL.

Question: What about the half-life ([1]; IV 1 mg/kg) of the same molecule?
Answer: The half-life was 6.5 ± 1.4 h.

Question: And the AUC(0-inf) ([1]; IV 3 mg/kg)?
Answer: Its AUC(0-inf) is 5080 ± 1060 ng·h/mL.

Question: What about the AUC(0-t) ([1]; IV 3 mg/kg) of the same molecule?
Answer: The AUC(0-t) was 4660 ± 998 ng·h/mL.

Question: What about the half-life ([1]; IV 3 mg/kg) of the same molecule?
Answer: Its half-life is 6.6 ± 0.5 h.

Question: And the MRT ([1]; IV 0.3 mg/kg)?
Answer: The MRT was 5.2 ± 0.4 h.

Question: What about the clearance ([1]; IV 0.3 mg/kg, read-out: CL) of the same molecule?
Answer: The clearance was 9.8 ± 0.6 mL/min/kg.

Question: What about the Vd ([1]; IV 0.3 mg/kg, read-out: Vd,ss) of the same molecule?
Answer: The Vd was 3.1 ± 0.3 L/kg.

Question: And the MRT ([1]; IV 1 mg/kg)?
Answer: Its MRT is 4.9 ± 0.5 h.

Question: And the clearance ([1]; IV 1 mg/kg, read-out: CL)?
Answer: The clearance was 10.7 ± 2.5 mL/min/kg.

Question: And the Vd ([1]; IV 1 mg/kg, read-out: Vd,ss)?
Answer: The Vd was 3.1 ± 0.6 L/kg.

Question: What about the MRT ([1]; IV 3 mg/kg) of the same molecule?
Answer: Its MRT is 5.2 ± 0.8 h.

Question: And the clearance ([1]; IV 3 mg/kg, read-out: CL)?
Answer: Its clearance is 10.2 ± 2.1 mL/min/kg.

Question: What about the Vd ([1]; IV 3 mg/kg, read-out: Vd,ss) of the same molecule?
Answer: Its Vd is 3.2 ± 0.5 L/kg.

Question: What about the clearance ([1]; IV 0.3–3 mg/kg, all doses together, read-out: Systemic clearance) of the same molecule?
Answer: The clearance was 10.1 ± 1.59 mL/min/kg.

Question: What about the Vd ([1]; IV, range over doses 0.3–3 mg/kg, read-out: steady-state volume of distribution (Vd,ss)) of the same molecule?
Answer: Its Vd is 3.1 to 3.2 L/kg.

Question: What about the “AUC∞/D” value ([1]; IV 0.3 mg/kg) of the same molecule?
Answer: The value was 1706.8 ± 102.3.

Question: And the Co/D ([1]; IV 0.3 mg/kg)?
Answer: Its Co/D is 416.8 ± 31.3.

Question: What about the Co ([1]; IV 0.3 mg/kg) of the same molecule?
Answer: The Co was 125.0 ± 9.4 ng/mL.

Question: What about the “AUC∞/D” value ([1]; IV 1 mg/kg) of the same molecule?
Answer: The value was 1626.7 ± 335.6.

Question: And the Co/D ([1]; IV 1 mg/kg)?
Answer: Its Co/D is 408.6 ± 103.2.

Question: And the Co ([1]; IV 1 mg/kg)?
Answer: The Co was 408.6 ± 103.2 ng/mL.

Question: What about the “AUC∞/D” value ([1]; IV 3 mg/kg) of the same molecule?
Answer: The value was 1694.3 ± 354.5.

Question: What about the Co/D ([1]; IV 3 mg/kg) of the same molecule?
Answer: The Co/D was 424.7 ± 62.2.

Question: What about the Co ([1]; IV 3 mg/kg) of the same molecule?
Answer: The Co was 1274.1 ± 186.6 ng/mL.

Question: And the Kp ([2]; male, ICR, mouse, kidney (versus plasma), kidney, read-out: AUC Ratio (AUC24 h, tissue / AUC24 h, plasma))?
Answer: The Kp was 41.9.

Question: And the Kp ([2]; male, ICR, mouse, kidney and intestinal tract (versus plasma), read-out: AUC ratio of kidney and intestinal tract compared with plasma)?
Answer: The Kp was greater than 10.

Question: And the Kp ([2]; male, ICR, mouse, large intestine (versus plasma), range over stomach, small and large intestine, read-out: plasma AUC ratio, gastrointestinal tract)?
Answer: Its Kp is 8.5 to 12.1.

Question: And the Kp ([2]; male, ICR, mouse, liver (versus plasma), liver, read-out: AUC Ratio (AUC24 h, tissue / AUC24 h, plasma))?
Answer: Its Kp is 5.8.

Question: And the Kp ([2]; male, ICR, mouse, heart, read-out: AUC Ratio (AUC24 h, tissue / AUC24 h, plasma))?
Answer: Its Kp is 1.7 ± 0.2.

Question: And the half-life ([2]; male, ICR, mouse, heart)?
Answer: Its half-life is 3.6 h.

Question: And the half-life ([2]; male, ICR, mouse, kidney)?
Answer: The half-life was 29 h.

Question: What about the Kp ([2]; male, ICR, mouse, large intestine, read-out: AUC Ratio (AUC24 h, tissue / AUC24 h, plasma)) of the same molecule?
Answer: The Kp was 8.5 ± 4.5.

Question: And the half-life ([2]; male, ICR, mouse, large intestine)?
Answer: The half-life was 3.4 h.

Question: What about the half-life ([2]; male, ICR, mouse, liver) of the same molecule?
Answer: Its half-life is 4.4 h.

Question: What about the Kp ([2]; male, ICR, mouse, lung, read-out: AUC Ratio (AUC24 h, tissue / AUC24 h, plasma)) of the same molecule?
Answer: Its Kp is 2 ± 0.2.

Question: What about the half-life ([2]; male, ICR, mouse, lung) of the same molecule?
Answer: The half-life was 9.6 h.

Question: And the AUC(0-t) ([2]; male, ICR, mouse, plasma, read-out: AUC24 h)?
Answer: Its AUC(0-t) is 1360 ± 260 ng·h/mL.

Question: And the half-life ([2]; male, ICR, mouse, plasma)?
Answer: The half-life was 3.7 h.

Question: And the Kp ([2]; male, ICR, mouse, small intestine, read-out: AUC Ratio (AUC24 h, tissue / AUC24 h, plasma))?
Answer: The Kp was 10.8 ± 3.

Question: And the half-life ([2]; male, ICR, mouse, small intestine)?
Answer: Its half-life is 2.6 h.

Question: What about the Kp ([2]; male, ICR, mouse, spleen, read-out: AUC Ratio (AUC24 h, tissue / AUC24 h, plasma)) of the same molecule?
Answer: Its Kp is 0.4.

Question: And the half-life ([2]; male, ICR, mouse, spleen)?
Answer: The half-life was 2.7 h.

Question: What about the Kp ([2]; male, ICR, mouse, stomach, read-out: AUC Ratio (AUC24 h, tissue / AUC24 h, plasma)) of the same molecule?
Answer: The Kp was 12.1 ± 7.

Question: What about the half-life ([2]; male, ICR, mouse, stomach) of the same molecule?
Answer: The half-life was 3.4 h.

Question: And the Kp ([2]; male, ICR, mouse, testis, read-out: AUC Ratio (AUC24 h, tissue / AUC24 h, plasma))?
Answer: The Kp was 0.5 ± 0.1.

Question: And the half-life ([2]; male, ICR, mouse, testis)?
Answer: The half-life was 22 h.

Question: And the Kp ([2]; male, ICR, mouse, versus plasma, read-out: AUC ratio in stomach, small intestine, large intestine, liver)?
Answer: The Kp was greater than 5.

Question: What about the “Concentration in brain tissue” value ([2]; brain) of the same molecule?
Answer: Its value is “not detected”.

Question: And the AUC24 h ([2]; heart)?
Answer: The AUC24 h was 2.19 ± 0.35 µg·h/g.

Question: What about the “K (elimination constant)” value ([2]; heart) of the same molecule?
Answer: The value was 0.194 h⁻¹.

Question: And the AUC24 h ([2]; kidney)?
Answer: Its AUC24 h is 54.5 ± 3.5 µg·h/g.

Question: What about the “K (elimination constant)” value ([2]; kidney) of the same molecule?
Answer: The value was 0.024 h⁻¹.

Question: What about the “AUC Ratio (AUC24 h, tissue / AUC24 h, plasma)” value ([2]; kidney) of the same molecule?
Answer: Its value is 41.9 ± 7.7.

Question: And the AUC24 h ([2]; large intestine)?
Answer: The AUC24 h was 11.1 ± 4.3 µg·h/g.

Question: What about the “K (elimination constant)” value ([2]; large intestine) of the same molecule?
Answer: The value was 0.204 h⁻¹.

Question: What about the AUC24 h ([2]; liver) of the same molecule?
Answer: Its AUC24 h is 8.08 ± 1.1 µg·h/g.

Question: And the “K (elimination constant)” value ([2]; liver)?
Answer: The value was 0.159 h⁻¹.

Question: What about the “AUC Ratio (AUC24 h, tissue / AUC24 h, plasma)” value ([2]; liver) of the same molecule?
Answer: Its value is 5.8 ± 0.4.

Question: What about the AUC24 h ([2]; lung) of the same molecule?
Answer: The AUC24 h was 3.04 ± 0.29 µg·h/g.

Question: And the “K (elimination constant)” value ([2]; lung)?
Answer: Its value is 0.072 h⁻¹.

Question: And the “K (elimination constant)” value ([2]; plasma)?
Answer: The value was 0.185 h⁻¹.

Question: What about the AUC24 h ([2]; small intestine) of the same molecule?
Answer: The AUC24 h was 14.2 ± 3.4 µg·h/g.

Question: And the “K (elimination constant)” value ([2]; small intestine)?
Answer: The value was 0.267 h⁻¹.

Question: And the AUC24 h ([2]; spleen)?
Answer: The AUC24 h was 0.58 ± 0.11 µg·h/g.

Question: What about the “K (elimination constant)” value ([2]; spleen) of the same molecule?
Answer: The value was 0.255 h⁻¹.

Question: And the AUC24 h ([2]; stomach)?
Answer: Its AUC24 h is 15.1 ± 6.4 µg·h/g.

Question: And the “K (elimination constant)” value ([2]; stomach)?
Answer: Its value is 0.206 h⁻¹.

Question: And the AUC24 h ([2]; testis)?
Answer: The AUC24 h was 0.95 ± 0.15 µg·h/g.

Question: And the “K (elimination constant)” value ([2]; testis)?
Answer: The value was 0.031 h⁻¹.

Question: What about the IC50 (SGLT1) of the same molecule?
Answer: The IC50 was 549 ± 140 nM.

Question: And the “In vitro hepatic clearance” value (hepatocytes)?
Answer: The value was 36.5 mL/min/kg.
